Measured values published in paper PMC6268108, “Design, Practical Synthesis, and Biological Evaluation of Novel 6-(Pyrazolylmethyl)-4-quinoline-3-carboxylic Acid Derivatives as HIV-1 Integrase Inhibitors” (Molecules, 2012).

Tests used:
HIV-1 integrase = biological target: T1, HIV-1 integrase (Human immunodeficiency virus type 1 group M subtype B, UniProt P04585); assay: HIV-1 integrase strand transfer (ST) activity assay; type: biochemical; conditions: 1 h; read-out: IC50 (inhibition of strand transfer)
T1 construct: pre-incubated with 800 ng integrase at 37.8 °C in the reaction buffer
Procedure: A HIV-1 integrase strand transfer (ST) activity assay was carried out to test the inhibition effectiveness of our compounds as described previously with some minor modifications. Compounds diluted in DMSO were pre-incubated with 800 ng integrase at 37.8 °C in the reaction buffer in the absence of Mn^2+ for 10 min. Subsequently, 1.5 pmol donor DNA and 9 pmol target DNA were added and the reaction was initiated by the addition of 10 mmol/L Mn^2+ into the final reaction volume. The reactions were carried out at 37.8 °C for 1 h and subsequent detection procedure was applied to detect the assay signals.

Row | SMILES | inhibition at 100 µg/mL (HIV-1 integrase) [%] | melting point [°C]
1 | Cc1cc(C)n(Cc2ccc3[nH]cc(C(=O)O)c(=O)c3c2)n1 [Compound 11a, 6-((3,5-Dimethyl-1H-pyrazol-1-yl)methyl)-4-oxo-1,4-dihydroquinoline-3-carboxylic acid] | < 50 | 254 to 256
2 | Cc1nn(Cc2ccc3[nH]cc(C(=O)O)c(=O)c3c2)c(C)c1Cl [Compound 11b, 6-((4-Chloro-3,5-dimethyl-1H-pyrazol-1-yl)methyl)-4-oxo-1,4-dihydroquinoline-3-carboxylic acid] | < 50 | 263 to 265
3 | Cc1nn(Cc2ccc3[nH]cc(C(=O)O)c(=O)c3c2)c(C)c1Br [Compound 11c, 6-((4-Bromo-3,5-dimethyl-1H-pyrazol-1-yl)methyl)-4-oxo-1,4-dihydroquinoline-3-carboxylic acid] | < 50 | 253 to 256
4 | Cc1cc(C)n(Cc2ccc3c(c2)c(=O)c(C(=O)O)cn3CC(O)CO)n1 (stereo not drawn) [Compound 12a, 1-(2,3-Dihydroxypropyl)-6-((3,5-dimethyl-1H-pyrazol-1-yl)methyl)-4-oxo-1,4-dihydroquinoline-3-carboxylic acid] | < 50 | 187 to 189
5 | Cc1nn(Cc2ccc3c(c2)c(=O)c(C(=O)O)cn3CC(O)CO)c(C)c1Cl (stereo not drawn) [Compound 12b, 1-(2,3-Dihydroxypropyl)-6-((4-chloro-3,5-dimethyl-1H-pyrazol-1-yl)methyl)-4-oxo-1,4-dihydro-quinoline-3-carboxylic acid] | < 50 | 278 to 280
6 | Cc1nn(Cc2ccc3c(c2)c(=O)c(C(=O)O)cn3CC(O)CO)c(C)c1Br (stereo not drawn) [Compound 12c, 1-(2,3-Dihydroxypropyl)-6-((4-bromo-3,5-dimethyl-1H-pyrazol-1-yl)methyl)-4-oxo-1,4-dihydroquino-line-3-carboxylic acid] | < 50 | 267 to 269
7 | Cc1cc(C)n(Cc2ccc3c(c2)c(=O)c(C(=O)O)cn3CC(=O)O)n1 [Compound 13a, 1-(Carboxymethyl)-6-((3,5-dimethyl-1H-pyrazol-1-yl)methyl)-4-oxo-1,4-dihydroquinoline-3-carboxylic acid] | < 50 | > 300
8 | Cc1nn(Cc2ccc3c(c2)c(=O)c(C(=O)O)cn3CC(=O)O)c(C)c1Cl [Compound 13b, 1-(Carboxymethyl)-6-((4-chloro-3,5-dimethyl-1H-pyrazol-1-yl)methyl)-4-oxo-1,4-dihydroquinoline-3-carboxylic acid] | < 50 | 292 to 295
9 | Cc1nn(Cc2ccc3c(c2)c(=O)c(C(=O)O)cn3CC(=O)O)c(C)c1Br [Compound 13c, 1-(Carboxymethyl)-6-((4-bromo-3,5-dimethyl-1H-pyrazol-1-yl)methyl)-4-oxo-1,4-dihydro-quinoline-3-carboxylic acid] | < 50 | 278 to 280
10 | Cc1cc(C)n(Cc2ccc3c(c2)c(=O)c(C(=O)O)cn3CCCS)n1 [Compound 14a, 1-(3-Mercaptopropyl)-6-((3,5-dimethyl-1H-pyrazol-1-yl)methyl)-4-oxo-1,4-dihydroquinoline-3-carboxylic acid] | < 50 | 225 to 226
11 | Cc1nn(Cc2ccc3c(c2)c(=O)c(C(=O)O)cn3CCCS)c(C)c1Cl [Compound 14b, 1-(3-Mercaptopropyl)-6-((4-chloro-3,5-dimethyl-1H-pyrazol-1-yl)methyl)-4-oxo-1,4-dihydro-quinoline-3-carboxylic acid] | < 50 | 238 to 240
12 | Cc1nn(Cc2ccc3c(c2)c(=O)c(C(=O)O)cn3CCCS)c(C)c1Br [Compound 14c, 6-((4-Bromo-3,5-dimethyl-1H-pyrazol-1-yl)methyl)-1-(3-mercaptopropyl)-4-oxo-1,4-dihydroquinoline-3-carboxylic acid] | < 50 | 231 to 233
13 | Cc1cc(C)n(Cc2ccc3c(c2)c(=O)c(C(=O)O)cn3Cc2ccc(F)cc2)n1 [Compound 15a, 1-(4-Fluorobenzyl)-6-((3,5-dimethyl-1H-pyrazol-1-yl)methyl)-4-oxo-1,4-dihydro-quinoline-3-carboxylic acid] | < 50 | 271 to 273
14 | Cc1nn(Cc2ccc3c(c2)c(=O)c(C(=O)O)cn3Cc2ccc(F)cc2)c(C)c1Cl [Compound 15b, 1-(4-Fluorobenzyl)-6-((4-chloro-3,5-dimethyl-1H-pyrazol-1-yl)methyl)-4-oxo-1,4-dihydro-quinoline-3-carboxylic acid] | < 50 | 239 to 241
15 | Cc1nn(Cc2ccc3c(c2)c(=O)c(C(=O)O)cn3Cc2ccc(F)cc2)c(C)c1Br [Compound 15c, 1-(4-Fluorobenzyl)-6-((4-bromo-3,5-dimethyl-1H-pyrazol-1-yl)methyl)-4-oxo-1,4-dihydro-quinoline-3-carboxylic acid] | < 50 | 255 to 257
16 | Cc1cc(C)n(Cc2ccc3c(c2)c(=O)c(C(=O)O)cn3Cc2ccc([N+](=O)[O-])cc2)n1 [Compound 16a, 1-(4-Nitrobenzyl)-6-((3,5-dimethyl-1H-pyrazol-1-yl)methyl)-4-oxo-1,4-dihydro-quinoline-3-carboxylic acid] | < 50 | 274 to 276
17 | Cc1nn(Cc2ccc3c(c2)c(=O)c(C(=O)O)cn3Cc2ccc([N+](=O)[O-])cc2)c(C)c1Cl [Compound 16b, 1-(4-Nitrobenzyl)-6-((4-chloro-3,5-dimethyl-1H-pyrazol-1-yl)methyl)-4-oxo-1,4-dihydroquinoline-3-carboxylic acid] | < 50 | 282 to 284
18 | Cc1nn(Cc2ccc3c(c2)c(=O)c(C(=O)O)cn3Cc2ccc([N+](=O)[O-])cc2)c(C)c1Br [Compound 16c, 1-(4-Nitrobenzyl)-6-((4-bromo-3,5-dimethyl-1H-pyrazol-1-yl)methyl)-4-oxo-1,4dihydroquinoline-3-carboxylic acid] | < 50 | 266 to 268
